From patent EP0171362A1, “Aminoalkyl penem compounds” (priority 1984, dated 1986)
≈ marks a conversion by molar mass, not a printed value.

What was measured:
Assay type in all cases: cell-based
Escherichia coli UB 1005 = experiment: In vitro antibiotic activity (MIC); conditions: UB1005
Description: Ueberraschenderweise weisen die erfindungsgemässen Penem-Verbindungen gegenüber strukturverwandten und vorbekannten Penemen eine überlegene Wirksamkeit auf. Dies wird deutlich beim Vergleich der MIC-Daten (minimum inhibitory concentrations, in vitro gemessen) von (5R,6S)-2-[(2R,S)-2-Amino-but-1-yl)-6-[(lR)-1-hydroxyäthyl]-2-penem-3-carbonsäure (Verbindung A) mit bekannten homologen Penemen, die in Position 2 des Penem-Ringes einen 4-Aminobutyl- bzw. 1-Aminobutyl-Substituenten tragen, nämlich (5R,6S)-2-(4-Aminobutyl)-6-hydroxymethyl-2-penem-3-carbonsäure (Europäische Patentanmeldung Nr. 82113, Verbindung B) und (5R,6S)-2-(1-Aminobutyl)-6-hydroxymethyl-2-penem-3-carbonsäure (Europäische Patentanmeldung Nr. 125 208, Verbindung C). Die Ergebnisse sind in der folgenden Tabelle 1 zusammengefasst.

[1] = system: Pseudomonas aeruginosa K 799/61; experiment: In vitro antibiotic activity (MIC); conditions: K799/61, read-out: in vitro MIC
[2] = system: Staphylococcus aureus A 124; experiment: In vitro antibiotic activity (MIC); conditions: A124
[3] = system: Pseudomonas aeruginosa 143738R; experiment: In vitro antibiotic activity (MIC)
[4] = system: Streptococcus pneumoniae III/84; experiment: In vitro antibiotic activity (MIC)
[5] = system: Staphylococcus aureus Wood 46; experiment: In vitro antibiotic activity (MIC); conditions: WOOD46
Escherichia coli 16 = experiment: In vitro antibiotic activity (MIC)
Escherichia coli 205 = experiment: In vitro antibiotic activity (MIC)
[6] = system: Escherichia coli 205 R + TEM; experiment: In vitro antibiotic activity (MIC); conditions: read-out: in vitro MIC
[7] = system: Staphylococcus aureus 2999i+p+; experiment: In vitro antibiotic activity (MIC)
[8] = system: Neisseria meningitidis 1316; experiment: In vitro antibiotic activity (MIC)
Escherichia coli DC 2 = experiment: In vitro antibiotic activity (MIC); conditions: DC2
[9] = system: Klebsiella pneumoniae 327; experiment: In vitro antibiotic activity (MIC)
Serratia marcescens 344 = experiment: In vitro antibiotic activity (MIC)
[10] = system: Staphylococcus aureus 10 B; experiment: In vitro antibiotic activity (MIC)
[11] = system: Streptococcus pyogenes Aronson 1129; experiment: In vitro antibiotic activity (MIC); conditions: ARONSON1129
[12] = system: Haemophilus influenzae 24; experiment: In vitro antibiotic activity (MIC)
[13] = system: Enterobacter cloacae P 99; experiment: In vitro antibiotic activity (MIC); conditions: P99, read-out: in vitro MIC
Proteus morganii 2359 = experiment: In vitro antibiotic activity (MIC); conditions: Morganella morganii
Escherichia coli 2018 = experiment: In vitro antibiotic activity (MIC)
[14] = system: Neisseria gonorrhoeae 1317/4; experiment: In vitro antibiotic activity (MIC)
[15] = system: Bacteroides fragilis L 01; experiment: In vitro antibiotic activity (MIC); conditions: L01
Proteus mirabilis 774 = experiment: In vitro antibiotic activity (MIC)
[16] = system: Pseudomonas aeruginosa ATCC 12055; experiment: In vitro antibiotic activity (MIC); conditions: ATCC12055
[17] = system: Enterobacter cloacae ATCC 13074; experiment: In vitro antibiotic activity (MIC); conditions: ATCC13074
[18] = system: Clostridium perfringens 194 AN; experiment: microbe, parasite or virus in culture; conditions: read-out: in vitro MIC
Escherichia coli B-1385 = experiment: In vitro antibiotic activity (MIC); conditions: B1385

Structure (SMILES)	MIC (Escherichia coli UB 1005) [µg/mL]	MIC [1] [µg/mL]	MIC [2] [µg/mL]	MIC [4] [µg/mL]	MIC (Escherichia coli 16) [µg/mL]	MIC (Escherichia coli 205) [µg/mL]	MIC [6] [µg/mL]	MIC [7] [µg/mL]	MIC (Escherichia coli DC 2) [µg/mL]	MIC [9] [µg/mL]	MIC (Serratia marcescens 344) [µg/mL]	MIC [10] [µg/mL]	MIC [11] [µg/mL]	MIC [13] [µg/mL]	MIC (Proteus morganii 2359) [µg/mL]	MIC [15] [µg/mL]	MIC (Proteus mirabilis 774) [µg/mL]	MIC [16] [µg/mL]	MIC [17] [µg/mL]	MIC [18] [µg/mL]	also measured
CCC(N)CC1=C(C(=O)O)N2C(=O)[C@H]([C@@H](C)O)[C@H]2S1 (stereo partly drawn) [Verbindung A, (5R,6S)-2-[(2R,S)-2-Amino-but-1-yl)-6-[(lR)-1-hydroxyäthyl]-2-penem-3-carbonsäure]	2 (≈ 6.98 µM)	4 (≈ 14 µM)	0.1 (≈ 0.349 µM)	0.05 (≈ 0.175 µM)	1 (≈ 3.49 µM)	1 (≈ 3.49 µM)	2 (≈ 6.98 µM)	0.05 (≈ 0.175 µM)	16 (≈ 55.9 µM)	1 (≈ 3.49 µM)	8 (≈ 27.9 µM)	0.02 (≈ 0.0698 µM)	0.05 (≈ 0.175 µM)	0.5 (≈ 1.75 µM)	8 (≈ 27.9 µM)	0.5 (≈ 1.75 µM)	2 (≈ 6.98 µM)	32 (≈ 112 µM)	2 (≈ 6.98 µM)	0.2 (≈ 0.698 µM)	MIC [3]: 64 µg/mL (≈ 224 µM); MIC [5]: 0.02 µg/mL (≈ 0.0698 µM); MIC [8]: 1 µg/mL (≈ 3.49 µM); MIC [12]: 16 µg/mL (≈ 55.9 µM); MIC (Escherichia coli 2018): 0.5 µg/mL (≈ 1.75 µM); MIC [14]: 0.5 µg/mL (≈ 1.75 µM); MIC (Escherichia coli B-1385): 1 µg/mL (≈ 3.49 µM)
NCCCCC1=C(C(=O)O)N2C(=O)[C@H](CO)[C@H]2S1 [Verbindung B, (5R,6S)-2-(4-Aminobutyl)-6-hydroxymethyl-2-penem-3-carbonsäure]	4 (≈ 14.7 µM)	4 (≈ 14.7 µM)	–	0.5 (≈ 1.84 µM)	4 (≈ 14.7 µM)	4 (≈ 14.7 µM)	8 (≈ 29.4 µM)	0.5 (≈ 1.84 µM)	8 (≈ 29.4 µM)	4 (≈ 14.7 µM)	16 (≈ 58.8 µM)	0.5 (≈ 1.84 µM)	0.5 (≈ 1.84 µM)	4 (≈ 14.7 µM)	16 (≈ 58.8 µM)	0.5 (≈ 1.84 µM)	16 (≈ 58.8 µM)	8 (≈ 29.4 µM)	16 (≈ 58.8 µM)	4 (≈ 14.7 µM)	–
CCCC(N)C1=C(C(=O)O)N2C(=O)[C@H](CO)[C@H]2S1 (stereo partly drawn) [Verbindung C, (5R,6S)-2-(1-Aminobutyl)-6-hydroxymethyl-2-penem-3-carbonsäure]	64 (≈ 235 µM)	64 (≈ 235 µM)	0.5 (≈ 1.84 µM)	0.05 (≈ 0.184 µM)	64 (≈ 235 µM)	64 (≈ 235 µM)	64 (≈ 235 µM)	0.05 (≈ 0.184 µM)	64 (≈ 235 µM)	32 (≈ 118 µM)	> 64	0.05 (≈ 0.184 µM)	1 (≈ 3.67 µM)	64 (≈ 235 µM)	> 64	16 (≈ 58.8 µM)	> 64	> 64	> 64	64 (≈ 235 µM)	MIC [3]: > 64 µg/mL; MIC [5]: 0.05 µg/mL (≈ 0.184 µM); MIC [8]: 1 µg/mL (≈ 3.67 µM); MIC [12]: 32 µg/mL (≈ 118 µM); MIC (Escherichia coli 2018): 32 µg/mL (≈ 118 µM); MIC [14]: 2 µg/mL (≈ 7.34 µM); MIC (Escherichia coli B-1385): 64 µg/mL (≈ 235 µM)
